Experimental data taken from patent US9676714B2, “Sulfonylindole derivatives and method for preparing the same” (Daewoong Pharmaceutical Co., Ltd., priority 2013, dated 2017).
Where a name gives a salt, the structure may show the parent alone.

Experiments:
[1] = target: T1, proton pump (H+/K+-ATPase) (Sus scrofa, UniProt P19156); assay: Measurement of inhibitory effects on proton pump (H+/K+-ATPase) activities; type: biochemical; conditions: hog gastric vesicles, K+-specific H+/K+-ATPase activity, Tris-HCl buffer pH 7.4, 37° C. for 40 minutes, malachite green Pi readout
T1 construct: Gastric vesicles were prepared from hog stomach via centrifugal separation; from tissue; host or cells: hog stomach (gastric vesicles, method of Rabon et al. 1988)
Method in brief: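 Hog gastric vesicles in 60 mmol/l Tris-HCl pH 7.4 with 0.5% DMSO were treated with compounds at room temperature; reaction was started with 10 μl of 10 mmol/l ATP stock. Released Pi was read at 570 nm, K+-specific activity taken as the ±K+ difference. IC50 from 4-parameter logistic fit.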

[2] = tested on: basal gastric acid secretion; assay: Inhibitory effect on the basal gastric acid secretion in pylorus-ligated rats (Shay's rat model); type: in vivo, Sprague Dawley (SD) rats; conditions: 5 h, male SD rats, 3 mg/kg/2 ml into the duodenum, five hours after the ligation, total gastric acid secretion vs control group
Method: 3) Inhibitory Effect on the Basal Gastric Acid Secretion in Pylorus-Ligated Rats
Assays for determining inhibitory effect of the compounds of the present invention on the basal gastric acid secretion was performed according to Shay's rat model (Shay, H., et al., 1945, gastroenterology, 5, p. 43-61). Male Sprague Dawley (SD) rats with a body weight in the range of 180˜220 g were divided into test (n=5) and control groups (n=5), and fasted for 18 hours with free access to water. Under isoflurane anesthesia, the abdomens of the rats were incised and then the pylorus was ligated. After the ligation, the control groups were administered with only 10% ethanol, 20% polyethylene glycol (PEG) 400, and 10% aqueous Cremophor solution through the duodenum, and the other groups were administered with test compounds suspended in 10% ethanol, 20% PEG 400, and 10% aqueous Cremophor solution at a concentration of 3 mg/kg/2 ml into the duodenum. Five hours after the ligation, the experimental animals were euthanized and their stomach contents were collected. The thus obtained contents were centrifuged at 4,000×g for 10 minutes, and the supernatant was recovered to obtain gastric juice therefrom. The amount of the gastric juice and its pH were measured. The acidity of the gastric juice was determined by 0.1 N-NaOH volume (ueq/mL) for automatic titration of gastric acid to pH 7.0. The total acid output was obtained by multiplying the gastric acidity by the amount of gastric juice. Inhibition Activity (%) of Test Compounds=(total gastric acid secretion in control group−total gastric acid secretion in groups treated with test compounds)/total gastric acid secretion in control group×100

T1 sequence (P19156 whole entry): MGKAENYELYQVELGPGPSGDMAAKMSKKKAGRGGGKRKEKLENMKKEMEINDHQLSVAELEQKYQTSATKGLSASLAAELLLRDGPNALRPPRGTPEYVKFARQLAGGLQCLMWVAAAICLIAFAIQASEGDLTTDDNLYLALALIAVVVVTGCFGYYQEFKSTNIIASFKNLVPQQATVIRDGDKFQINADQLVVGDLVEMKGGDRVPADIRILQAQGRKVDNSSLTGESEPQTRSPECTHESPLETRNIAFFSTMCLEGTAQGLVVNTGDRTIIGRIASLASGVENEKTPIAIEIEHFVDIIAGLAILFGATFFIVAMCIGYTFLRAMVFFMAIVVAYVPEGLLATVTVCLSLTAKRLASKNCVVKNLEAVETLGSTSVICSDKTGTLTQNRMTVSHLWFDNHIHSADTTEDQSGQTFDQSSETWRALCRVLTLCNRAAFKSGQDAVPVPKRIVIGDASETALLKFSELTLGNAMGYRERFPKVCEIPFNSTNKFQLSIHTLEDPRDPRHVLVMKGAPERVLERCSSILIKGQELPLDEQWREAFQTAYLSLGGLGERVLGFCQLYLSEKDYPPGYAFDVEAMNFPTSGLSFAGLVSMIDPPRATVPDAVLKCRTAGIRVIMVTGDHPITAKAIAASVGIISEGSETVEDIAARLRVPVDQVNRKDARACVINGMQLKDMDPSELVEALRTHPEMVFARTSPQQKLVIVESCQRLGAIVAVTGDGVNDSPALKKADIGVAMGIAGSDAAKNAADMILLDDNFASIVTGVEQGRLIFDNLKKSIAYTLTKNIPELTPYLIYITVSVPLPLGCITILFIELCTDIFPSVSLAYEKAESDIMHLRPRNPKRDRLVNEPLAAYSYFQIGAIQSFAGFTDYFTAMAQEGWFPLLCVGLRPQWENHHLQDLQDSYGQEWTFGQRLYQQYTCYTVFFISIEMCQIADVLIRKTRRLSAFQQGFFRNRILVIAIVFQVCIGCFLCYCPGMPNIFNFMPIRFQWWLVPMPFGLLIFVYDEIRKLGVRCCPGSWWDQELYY
T1 sequence (P18434 whole entry partner): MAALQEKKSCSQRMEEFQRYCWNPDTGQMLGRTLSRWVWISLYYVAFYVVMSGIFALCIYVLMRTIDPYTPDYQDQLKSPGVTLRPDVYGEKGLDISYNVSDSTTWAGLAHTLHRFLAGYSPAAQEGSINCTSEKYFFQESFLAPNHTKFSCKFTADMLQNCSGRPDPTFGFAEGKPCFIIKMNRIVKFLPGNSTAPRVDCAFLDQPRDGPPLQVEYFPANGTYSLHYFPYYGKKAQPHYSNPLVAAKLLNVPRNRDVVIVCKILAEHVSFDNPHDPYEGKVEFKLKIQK

Structure (SMILES)	IC50 [1] [nM]	inhibition in vivo at 3 mg/kg [2] [%]
CNCc1cn(S(=O)(=O)c2cccnc2)c2cc(Nc3ccc(C)cc3Cl)ccc12 [Example 22, N-(2-chloro-4-methylphenyl)-3-((methylamino)methyl)-1-(pyridin-3-ylsulfonyl)-1H-indol-6-amine]	210	48
CNCc1cn(S(=O)(=O)c2cccnc2)c2cc(Nc3ccc(Cl)cc3Cl)ccc12 [Example 29, N-(2,4-dichlorophenyl)-3-((methylamino)methyl)-1-(pyridin-3-ylsulfonyl)-1H-indol-6-amine hydrochloride]	130	44
CNCc1cn(S(=O)(=O)c2cccnc2)c2cc(Nc3ccc(Cl)cc3C(F)(F)F)ccc12 [Example 31, N-(4-chloro-2-(trifluoromethyl)phenyl)-3-((methylamino)methyl)-1-(pyridin-3-ylsulfonyl)-1H-indol-6-amine hydrochloride]	920	41
CNCc1cn(S(=O)(=O)c2cccnc2)c2cc(Nc3ccc(C(F)(F)F)cc3Cl)ccc12 [Example 34, N-(2-chloro-4-(trifluoromethyl)phenyl)-3-((methylamino)methyl)-1-(pyridin-3-ylsulfonyl)-1H-indol-6-amine hydrochloride]	390	45
CNCc1cn(S(=O)(=O)c2cccnc2)c2cc(Nc3ccc(OC)cc3OC(F)(F)F)ccc12 [Example 50, N-(4-methoxy-2-(trifluoromethoxy)phenyl)-3-((methylamino)methyl)-1-(pyridin-3-ylsulfonyl)-1H-indol-6-amine hydrochloride]	1370	67
CNCc1cn(S(=O)(=O)c2cccnc2)c2cc(Nc3ccc(OC)cc3[N+](=O)[O-])ccc12 [Example 52, N-(4-methoxy-2-nitrophenyl)-3-((methylamino)methyl)-1-(pyridin-3-ylsulfonyl)-1H-indol-6-amine hydrochloride]	290	70
CNCc1cn(S(=O)(=O)c2cccnc2)c2cc(Nc3ccc(F)cc3C)cnc12 [Example 346, N-(4-fluoro-2-methylphenyl)-3-((methylamino)methyl)-1-(pyridin-3-ylsulfonyl)-1H-pyrrolo[3,2-b]pyridin-6-amine hydrochloride]	230	–
CNCc1cn(S(=O)(=O)c2cccnc2)c2cc(Nc3ccc(Cl)cc3C)cnc12 [Example 348, N-(4-chloro-2-methylphenyl)-3-((methylamino)methyl)-1-(pyridin-3-ylsulfonyl)-1H-pyrrolo[3,2-b]pyridin-6-amine hydrochloride]	200	–
CNCc1cn(S(=O)(=O)c2cccnc2)c2cc(Nc3ccc(Cl)cc3Cl)cnc12 [Example 349, N-(2,4-dichlorophenyl)-3-((methylamino)methyl)-1-(pyridin-3-ylsulfonyl)-1H-pyrrolo[3,2-b]pyridin-6-amine hydrochloride]	280	–
CNCc1cn(S(=O)(=O)c2cncc(F)c2)c2cc(Nc3ccc(C)cc3Cl)cnc12 [Example 350, N-(2-chloro-4-methylphenyl)-1-((5-fluoropyridin-3-yl)sulfonyl)-3-((methylamino)methyl)-1H-pyrrolo[3,2-b]pyridin-6-amine hydrochloride]	260	–
CNCc1cn(S(=O)(=O)c2cncc(F)c2)c2cc(Nc3ccc(F)cc3C)cnc12 [Example 351, N-(4-fluoro-2-methylphenyl)-1-((5-fluoropyridin-3-yl)sulfonyl)-3-((methylamino)methyl)-1H-pyrrolo[3,2-b]pyridin-6-amine hydrochloride]	350	–
CNCc1cn(S(=O)(=O)c2cccc(F)c2)c2cc(Nc3ccc(C)cc3Cl)ncc12 [Example 353, N-(2-chloro-4-methylphenyl)-1-((3-fluorophenyl)sulfonyl)-3-((methylamino)methyl)-1H-pyrrolo[3,2-c]pyridin-6-amine hydrochloride]	830	–
CNCc1cn(S(=O)(=O)c2cccc(F)c2)c2cc(Nc3ccc(Cl)nc3Cl)ncc12 [Example 357, N-(2,6-dichloropyridin-3-yl)-1-((3-fluorophenyl)sulfonyl)-3-((methylamino)methyl)-1H-pyrrolo[3,2-c]pyridin-6-amine hydrochloride]	950	–
CNCc1cn(S(=O)(=O)c2cccc(F)c2)c2cc(Nc3ccc(C)nc3Cl)ncc12 [Example 358, N-(2-chloro-6-methylpyridin-3-yl)-1-((3-fluorophenyl)sulfonyl)-3-((methylamino)methyl)-1H-pyrrolo[3,2-c]pyridin-6-amine hydrochloride]	1270	–

Further compounds by falling IC50 [1], results first:

IC50 [1] [nM]	Structure (SMILES)	inhibition in vivo at 3 mg/kg [2] [%]
18300	CNCc1cn(S(=O)(=O)c2cccc(F)c2)c2cc(Nc3ccc(C)cc3Cl)ncc12 [Example 359, N-(2-chloro-4-methylphenyl)-1-((3-fluorophenyl)sulfonyl)-3-((methylamino)methyl)-1H-pyrrolo[3,2-c]pyridin-6-amine hydrochloride]	–
970	CNCc1cn(S(=O)(=O)c2cccc(F)c2)c2cc(Nc3ccc(Cl)nc3C)cnc12 [Example 344, N-(6-chloro-2-methylpyridin-3-yl)-1-((3-fluorophenyl)sulfonyl)-3-((methylamino)methyl)-1H-pyrrolo[3,2-b]pyridin-6-amine hydrochloride]	–
800	CNCc1cn(S(=O)(=O)c2cccc(F)c2)c2cc(Nc3ccc(F)cc3C)ncc12 [Example 354, N-(4-fluoro-2-methylphenyl)-1-((3-fluorophenyl)sulfonyl)-3-((methylamino)methyl)-1H-pyrrolo[3,2-c]pyridin-6-amine hydrochloride]	–
740	CNCc1cn(S(=O)(=O)c2cccnc2)c2cc(Nc3ccc(Cl)cc3F)ccc12 [Example 28, N-(4-chloro-2-fluorophenyl)-3-((methylamino)methyl)-1-(pyridin-3-ylsulfonyl)-1H-indol-6-amine hydrochloride]	44
480	CNCc1cn(S(=O)(=O)c2cccc(F)c2)c2cc(Nc3ccc(F)cc3Cl)ncc12 [Example 355, N-(2-chloro-4-fluorophenyl)-1-((3-fluorophenyl)sulfonyl)-3-((methylamino)methyl)-1H-pyrrolo[3,2-c]pyridin-6-amine hydrochloride]	–
250	CNCc1cn(S(=O)(=O)c2cncc(F)c2)c2cc(Nc3ccc(F)cc3Cl)cnc12 [Example 352, N-(2-chloro-4-fluorophenyl)-1-((5-fluoropyridin-3-yl)sulfonyl)-3-((methylamino)methyl)-1H-pyrrolo[3,2-b]pyridin-6-amine hydrochloride]	–
180	CNCc1cn(S(=O)(=O)c2cccnc2)c2cc(Nc3ccc(C)cc3F)ccc12 [Example 1, N-(2-fluoro-4-methylphenyl)-3-((methylamino)methyl)-1-(pyridin-3-ylsulfonyl)-1H-indol-6-amine hydrochloride]	58
180	CNCc1cn(S(=O)(=O)c2cccnc2)c2cc(Nc3ccc(F)cc3Cl)cnc12 [Example 347, N-(2-chloro-4-fluorophenyl)-3-((methylamino)methyl)-1-(pyridin-3-ylsulfonyl)-1H-pyrrolo[3,2-b]pyridin-6-amine hydrochloride]	–
120	CNCc1cn(S(=O)(=O)c2cccnc2)c2cc(Nc3ccc(C)cc3Cl)cnc12 [Example 345, N-(2-chloro-4-methylphenyl)-3-((methylamino)methyl)-1-(pyridin-3-ylsulfonyl)-1H-pyrrolo[3,2-b]pyridin-6-amine hydrochloride]	–
